# Read-outs that look alike come from different tables or passages of the source. Where a SMILES comes first, the peptide text is derived from it. The star is where a group is joined. X1 = O=C(CO/N=C/c1cccnc1F)*
# What was measured:
# [1] = Preclinical PET biodistribution of [^18F]FPCA‐F9 solution after tail‐vein injection; type: in vivo, C3H mice; settings: C3H, mouse, iv, 13 MBq, total radioactivity, i.v. tail vein; for SUV at 1 h: 1 hour postinjection; for SUV at 20 min: 20 minutes postinjection
# Experimental: C3H mice were anaesthetised using isoflurane induction 4% and maintained 1.5% in 70% N2O and 30% O2 mixture. [^18F]FPCA‐F9 solution was injected in the tail vein (13 MBq, n = 4) of healthy mice or [^18F]FPCA‐F9 hydrogel was injected subcutaneously into the right flank of different healthy mice (2‐5 MBq, n = 3). The acquisition protocol parameters consisted of a preliminary CT scan to determine attenuation correction factors followed by a 1‐ and 4‐hour PET acquisition time for [^18F]FPCA‐F9 solution and hydrogel, respectively. Major excretory organs, including liver, kidney and bladder as well as bone and hydrogel region (in [^18F]FPCA‐F9 hydrogel scans only), were delineated on CT and uptake was quantified as SUV.
# [2] = [^18F]FPCA‐F9 preclinical metabolite analysis (SE‐HPLC of plasma, kidney, liver, urine); type: in vivo, C3H mice
# Experimental: […] Plasma was extracted from whole blood samples using a Thermo ALC multispeed refrigerated centrifuge PK121R (8720 g, 4°C for 3 minutes). Kidney and liver samples were homogenised and centrifuged (8720 g, 4°C for 3 minutes), and the supernatant was removed for HPLC analysis. Urine samples were directly injected onto HPLC without sample preparation using a GE Superdex peptide 10/300 GL (GE Healthcare, UK) eluted with PBS (1 mL/min, 220 nm).
structure (smiles),measurement,setting,value
NCCCC[C@H](NC(=O)[C@H](CCCCN)NC(=O)[C@H](Cc1ccccc1)NC(=O)[C@H](CCC(=O)O)NC(=O)[C@H](Cc1ccccc1)NC(=O)[C@H](CCCCN)NC(=O)[C@H](Cc1ccccc1)NC(=O)[C@H](CCC(=O)O)NC(=O)[C@H](Cc1ccccc1)NC(=O)CO/N=C/c1cccnc1F)C(=O)O [[^18F]FPCA‐F9] (X1-FEFKFEFKK-OH),SUV at 1 h,"[1]; bladder, n = 4, read-out: Bladder uptake",47.4 ± 7.2 SUV
same,SUV at 20 min,"[1]; bladder, begins to plateau, n = 4, mean ± SD, read-out: Bladder uptake",53.4 ± 16.6 SUV
same,SUV at 1 h,"[1]; bone, n = 4, read-out: Bone accumulation",7.8 ± 2.5 SUV
same,SUV,"[1]; kidney, within 5 minutes postinjection, n = 4, read-out: Kidney uptake",5.9 ± 1.9 SUV
same,SUV at 5 min,"[1]; liver, 5 minutes postinjection, n = 4, read-out: Liver uptake",1.4 ± 0.1 SUV
same,SUV at 20 min,"[1]; liver, n = 4, read-out: Liver uptake",0.7 ± 0.1 SUV
same,"Metabolites of [^18F]FPCA‐F9 in liver, kidney, urine and plasma samples (in words)","[2]; SE‐HPLC, parent peak at ~18 minutes",none of the samples analysed showed any metabolite
same,Plasma stability (in words),"[2]; in vivo, mouse plasma, metabolite analysis by SE‐HPLC",high plasma stability
same,"Radioactivity in second peak at ~8 minutes (larger species, aggregation or protein interaction)","[2]; liver and kidney samples, SE‐HPLC",~ 5%
same,"Parent ([^18F]FPCA‐F9) fraction, kidney","[2]; mouse kidney homogenate supernatant after i.v. injection of monomer, after 60 minutes, SE‐HPLC radio‐detection, mean ± SD, n = 4",95% ± 1%
same,"Parent ([^18F]FPCA‐F9) fraction, liver","[2]; mouse liver homogenate supernatant after i.v. injection of monomer, after 60 minutes, SE‐HPLC radio‐detection (Superdex peptide 10/300 GL, PBS), mean ± SD, n = 4",94% ± 0%
same,"Parent ([^18F]FPCA‐F9) fraction, plasma","[2]; mouse plasma after i.v. injection of monomer, after 60 minutes, SE‐HPLC radio‐detection, mean, n = 4",100%
same,"Parent ([^18F]FPCA‐F9) fraction, urine","[2]; mouse urine after i.v. injection of monomer, after 60 minutes, SE‐HPLC radio‐detection, mean ± SD, n = 4",95% ± 1%
same,Radioactivity in peak at ~12 minutes (larger species),"[2]; urine samples, SE‐HPLC",5%

# Reference: article PMC5601235, “In vivo characterisation of a therapeutically relevant self‐assembling ^18F‐labelled β‐sheet forming peptide and its hydrogel using positron emission tomography” (Journal of Labelled Compounds & Radiopharmaceuticals, 2017)
